Test results: paper PMC11240954 (International Journal of Molecular Sciences, 2024)
Read-outs that look alike come from different tables or passages of the source. Peptide text beside a SMILES is read from it.

What was measured:
[1] = test system: Influenza A Virus (H1N1)
[2] = test system: Influenza A Virus (H3N2)
[3] = test system: Human Adenovirus-5
[4] = test system: Murine Norovirus-1
[5] = test system: MDCK cells; conditions: dog
[6] = test system: Vero cells; conditions: African green monkey
[7] = test system: adenovirus; conditions: 111 µM LL-37 ref 60; cited from earlier work
[8] = in vitro; conditions: dog
[9] = in vitro; conditions: African green monkey
[10] = test system: Influenza A Virus (H1N1); experiment: microbe, parasite or virus in culture; conditions: H1N1, MDCK, 3 h, read-out: IC50 Influenza A Virus (H1N1)/MDCK
[11] = test system: Influenza A Virus (H3N2); experiment: microbe, parasite or virus in culture; conditions: H3N2, MDCK, 3 h, read-out: IC50 Influenza A Virus (H3N2)/MDCK
[12] = test system: Human Adenovirus-5; experiment: microbe, parasite or virus in culture; conditions: Human mastadenovirus C, Vero, 3 h, read-out: IC50 Human Adenovirus-5/Vero
[13] = test system: Murine Norovirus-1; experiment: microbe, parasite or virus in culture; conditions: Norwalk virus, in Mus musculus, 3 h, read-out: IC50 Murine Norovirus-1/Raw 246.7
[14] = test system: H1N1; experiment: Transmission electron microscopy of treated virus; design: species or system influenza virus H1N1 A/PR/8/34; conditions: TEM, 2 h exposure; untreated 120 nm
Experimental: (§1) The viruses were exposed to the peptide/mimics for 2 h at 37 °C. Following this, 10 µL of the treated mixture was applied onto a glow-discharged carbon-coated 200 mesh copper grid and left to evaporate for 5 min. Subsequently, the sample was stained with 2% phosphotungstic acid (pH 4.5) for 1 min to enhance contrast. After air-drying, the grids were examined using an FEI Tecnai G2 20 transmission electron microscope (TEM).

[15] = test system: H3N2 virus; experiment: Transmission electron microscopy of treated virus; design: species or system influenza virus H3N2 A/Hong Kong/8/68; conditions: 2 h exposure
Experimental: as §1

[16] = Circular dichroism conformational analysis; format: physicochemical; conditions: 125, 250, 500 µM
Experimental: Circular dichroism (CD) analysis was conducted using the Jasco J-1500 spectropolarimeter to assess the secondary structure of peptides and mimics. The samples were placed in a quartz cuvette with a path length of 0.1 cm (Fisher brand, Thermo Fisher Scientific Aust Pty Ltd.). Spectra were recorded in the range of 185–260 nm at a scan speed of 200 nm/min, averaging 4 scans. The impact of the solvents milliQ water or 30 mM SDS on Mel4 and mimic 758 was evaluated at three concentrations: 500 µM, 250 µM, and 125 µM. Data were averaged, and the spectrum of a sample-free control was subtracted.

[17] = read-out: IC50 Human Adenovirus-5/Vero

| Compound | SI Influenza A Virus (H1N1)/MDCK [1] | SI Influenza A Virus (H3N2)/MDCK [2] | CC50 ([8]; CC50 (H1N1/MDCK)) [µM] | CC50 ([8]; CC50 (H3N2/MDCK)) [µM] | IC50 [10] [µM] | IC50 [11] [µM] | IC50 [12] [µM] | IC50 [13] [µM] | other results |
| --- | --- | --- | --- | --- | --- | --- | --- | --- | --- |
| NCCCCC(N)C(=O)NCCNC(=O)C(Cc1c[nH]c2ccccc12)NC(=O)c1cc(Br)ccc1NC(=O)c1ccc(-c2ccccc2)cc1 (stereo not drawn) [4-BIPL] | 1.2 | 1.2 | – | – | – | – | – | – | IC50 ([1]; read-out: IC50 Influenza A Virus (H1N1)/MDCK): 10.3 µM; IC50 ([2]; read-out: IC50 Influenza A Virus (H3N2)/MDCK): 10.4 µM; IC50 [3, 17]: > 62.5 µM; IC50 ([4]; read-out: IC50 Murine Norovirus-1/Raw 246.7): > 62.5 µM; CC50 [5]: 12.8 µM; CC50 [6]: 38.8 µM |
| CC[C@H](C)[C@H](NC(=O)[C@H](CCCCN)NC(=O)[C@H](CCC(=O)O)NC(=O)[C@H](CCCCN)NC(=O)[C@H](CO)NC(=O)[C@H](CCCCN)NC(=O)[C@H](CCCNC(=N)N)NC(=O)[C@H](Cc1ccccc1)NC(=O)[C@H](Cc1ccccc1)NC(=O)[C@H](CC(=O)O)NC(=O)CNC(=O)[C@H](CC(C)C)NC(=O)[C@@H](N)CC(C)C)C(=O)NCC(=O)N[C@@H](CCCCN)C(=O)N[C@@H](CCC(=O)O)C(=O)N[C@@H](Cc1ccccc1)C(=O)N[C@@H](CCCCN)C(=O)N[C@@H](CCCNC(=N)N)C(=O)N[C@H](C(=O)N[C@H](C(=O)N[C@@H](CCC(N)=O)C(=O)N[C@@H](CCCNC(=N)N)C(=O)N[C@H](C(=O)N[C@@H](CCCCN)C(=O)N[C@@H](CC(=O)O)C(=O)N[C@@H](Cc1ccccc1)C(=O)N[C@@H](CC(C)C)C(=O)N[C@@H](CCCNC(=N)N)C(=O)N[C@@H](CC(N)=O)C(=O)N[C@@H](CC(C)C)C(=O)N[C@H](C(=O)N1CCC[C@H]1C(=O)N[C@@H](CCCNC(=N)N)C(=O)N[C@H](C(=O)N[C@@H](CCC(=O)O)C(=O)N[C@@H](CO)C(=O)O)[C@@H](C)O)C(C)C)[C@@H](C)CC)C(C)C)[C@@H](C)CC [LL-37, reference compound] | – | – | – | – | – | – | – | – | IC50 ([1]; Virus, 3 h): > 500 µM; IC50 ([2]; Virus, 3 h): > 500 µM; IC50 Human Adenovirus-5/Vero [3]: no activity; IC50 ([3]; 3 h): > 125 µM; IC50 ([4]; 3 h): 4.2 µM; effect on adenovirus [7]: no effect |
| N=C(N)NCCC[C@H](NC(=O)[C@H](CCCNC(=N)N)NC(=O)[C@H](CCCNC(=N)N)NC(=O)[C@H](CCCNC(=N)N)NC(=O)CNC(=O)CNC(=O)[C@H](CCCNC(=N)N)NC(=O)[C@H](CCCNC(=N)N)NC(=O)[C@H](CCCNC(=N)N)NC(=O)[C@H](CCCNC(=N)N)NC(=O)[C@H](CCCNC(=N)N)NC(=O)[C@H](CCCNC(=N)N)NC(=O)[C@H](CCCCN)NC(=O)[C@H](CCCNC(=N)N)NC(=O)[C@H](CCCCN)NC(=O)[C@H](CC(N)=O)NC(=O)[C@@H](N)CCCCN)C(=O)O [Mel4] (H-KNKRKRRRRRRGGRRRR-OH) | – | – | – | – | – | – | – | – | IC50 ([1]; Virus, 3 h): > 500 µM; IC50 ([2]; Virus, 3 h): > 500 µM; IC50 ([3]; 3 h): 47.4 µM; IC50 ([4]; 3 h): 8.6 µM; CC50 [8]: 12.7 µM; CC50 at 24 h [9]: 47.6 µM |
| CC[C@H](C)[C@H](NC(=O)[C@H](Cc1c[nH]c2ccccc12)NC(=O)[C@H](CO)NC(=O)[C@@H](NC(=O)[C@H](CC(C)C)NC(=O)[C@@H](N)[C@@H](C)O)[C@@H](C)CC)C(=O)N[C@@H](CCCCN)C(=O)N[C@@H](CC(N)=O)C(=O)N[C@@H](CCCCN)C(=O)N[C@@H](CCCNC(=N)N)C(=O)N[C@@H](CCCCN)C(=O)N[C@@H](CCC(N)=O)C(=O)N[C@@H](CCCNC(=N)N)C(=O)N1CCC[C@H]1C(=O)N[C@@H](CCCNC(=N)N)C(=O)N[C@H](C(=O)N[C@@H](CO)C(=O)N[C@@H](CCCNC(=N)N)C(=O)N[C@@H](CCCNC(=N)N)C(=O)N[C@@H](CCCNC(=N)N)C(=O)N[C@@H](CCCNC(=N)N)C(=O)N[C@@H](CCCNC(=N)N)C(=O)N[C@@H](CCCNC(=N)N)C(=O)NCC(=O)NCC(=O)N[C@@H](CCCNC(=N)N)C(=O)N[C@@H](CCCNC(=N)N)C(=O)N[C@@H](CCCNC(=N)N)C(=O)N[C@@H](CCCNC(=N)N)C(=O)O)C(C)C [Melimine] (H-TLISWIKNKRKQRPRVSRRRRRRGGRRRR-OH) | – | – | – | – | – | – | – | – | IC50 ([1]; Virus, 3 h): > 500 µM; IC50 ([2]; Virus, 3 h): > 500 µM; IC50 ([3]; 3 h): > 125 µM; IC50 ([4]; 3 h): 4.8 µM; CC50 [8]: 28.1 µM; CC50 at 24 h [9]: 14.5 µM |
| NCCCCC(N)C(=O)NCCNC(=O)C(Cc1c[nH]c2ccccc12)NC(=O)c1cc(Br)ccc1NC(=O)c1ccc2ccccc2c1 (stereo not drawn) [NAPL] | 10.6 | 10.6 | 112 | 112 | 10.5 | 10.5 | 59.3 | > 62.5 | – |
| NCCNC(=O)C(Cc1c[nH]c2ccccc12)NC(=O)c1cc(-c2ccccc2-c2ccccc2)ccc1N (stereo not drawn) [Sau-22] | 11.4 | 14.8 | 79.4 | 79.4 | 6.93 | 5.34 | > 62.5 | > 62.5 | – |
| NCCNC(=O)C(Cc1c[nH]c2ccccc12)NC(=O)c1cc(-c2ccc3ccccc3c2)ccc1N (stereo not drawn) [compound 610] | 14.1 | 9 | 33.3 | 33.3 | 2.35 | 3.7 | > 62.5 | > 62.5 | average particle size of the virus after treatment [14]: 48 nm; effect on virus particle (TEM) [15]: reduction in size and disruption to the envelop and spike proteins |
| NCCNC(=Nc1ccccc1)NCCNC(=O)C(Cc1c[nH]c2ccccc12)NC(=O)c1cc(Br)ccc1NC(=O)c1ccc2ccccc2c1 (stereo not drawn) [compound 758] | 11.9 | 15.8 | 147 | 147 | 12.3 | 9.3 | > 62.5 | > 62.5 | secondary structure by CD in SDS ([16]; 30 mM SDS (membrane mimetic)): beta sheet-like structure; secondary structure by CD in water ([16]; milliQ water): beta sheet-like structure |
| NCCN=C(NCCN)NCCNC(=O)C(Cc1c[nH]c2ccccc12)NC(=O)c1cc(Br)ccc1NC(=O)c1ccc2ccccc2c1 (stereo not drawn) [compound 1083] | 8.7 | 9.05 | 250 | 250 | 28.5 | 27.7 | 47.2 | > 62.5 | IC50 [3, 17]: 45.1 µM |
| N=C(N)NCCNC(=O)C(Cc1ccccc1)NC(=O)c1cc(Br)ccc1NC(=O)c1ccc2ccccc2c1 (stereo not drawn) [compound 1091] | 5.5 | 5.2 | 128 | 128 | 23.1 | 24.3 | > 62.5 | > 62.5 | – |
| NCCNC(=Nc1ccccc1)NCCNC(=O)C(Cc1ccccc1)NC(=O)c1cc(Br)ccc1NC(=O)c1ccc2ccccc2c1 (stereo not drawn) [compound 1096] | 2.1 | 1.9 | 47.2 | 47.2 | 22.2 | 24 | > 62.5 | > 62.5 | – |
